The values that follow come from patent publication US20260138988A1, “Spiropyrrolidine Derived Antiviral Agents” (Enanta Pharmaceuticals, Inc., priority 2021, published 2026).

A word on the IC50: it is the midpoint of a concentration-inhibition curve.

The target in one assay is SARS-CoV-2 3CL-protease (Severe acute respiratory syndrome coronavirus 2, UniProt P0DTD1). In words: SARS-CoV-2 3C-Like (3CL) Protease Fluorescence Assay (FRET). It counts as biochemical. Conditions: IC50, SARS-CoV-2 3CL-protease 10 nM, test compounds 0-10 μM, duplicate.
On to `C[C@H](NC(=O)C(F)(F)C(F)(F)C(F)(F)F)C(=O)N(C)[C@@H](CC1CC1)C(=O)N1C[C@]2(C[C@H]1C#N)C(=O)Nc1ccccc12` [Example 206], for which the half-maximal inhibitory concentration (IC50) is under 100 nM.
`C[C@H](NC(=O)C(F)(F)C(F)(F)F)C(=O)N(C)[C@@H](CC1CC1)C(=O)N1C[C@]2(C[C@H]1C#N)C(=O)N(COP(=O)(OC(C)(C)C)OC(C)(C)C)c1ccccc12` [Example 351] gave an IC50 of under 100 nM.

Staying with this assay, now noted: SARS-CoV-2 3CL-protease 10 nM, test compounds 0-10 μM, duplicate, read-out: IC50.
As for `CN(C(=O)c1cc2c([nH]1)CN(C(=O)C(F)(F)F)CC2)[C@@H](CC(C)(C)C)C(=O)N1C[C@]2(C[C@H]1C#N)C(=O)Nc1ccccc12` [Example 175], the IC50 lay in the range of 100 to 1000 nM.
On the same count and under the same terms, the result for `CC(C)C[C@@H](C(=O)N1C[C@]2(C[C@H]1C#N)C(=O)Nc1ccccc12)N(C)C(=O)[C@H](C)NC(=O)c1c(F)ccc2ccoc12` [Example 187] reads under 100 nM; that for `CC(C)(C)C[C@H](NC(=O)[C@@H](Nc1ccc(F)cc1)C1CC1)C(=O)N1C[C@]2(C[C@H]1C#N)C(=O)Nc1ccccc12` [Example 338], under 100 nM.
As to `CC(C)(C)C[C@H](NC(=O)[C@H](CC1CC1)NS(=O)(=O)c1ccc(F)cc1)C(=O)N1C[C@]2(C[C@H]1C#N)C(=O)Nc1ccccc12` [Example 313], the IC50 is under 100 nM.
On the same count and under the same terms, the result for `CC(C)C[C@@H](C(=O)N1C[C@]2(C[C@H]1C#N)C(=O)Nc1ccccc12)N(C)C(=O)[C@H](C)NC(=O)C1(F)CC2(CCC2)C1` [Example 141] reads under 100 nM.
In the case of `CC(C)(C)C[C@H](NC(=O)[C@@H](NC(=O)c1ccc(F)cc1)c1ccccc1)C(=O)N1C[C@]2(C[C@H]1C#N)C(=O)Nc1ccccc12` [Example 247], the IC50 is under 100 nM.
For the compound `C[C@H](NC(=O)C(C)(F)F)C(=O)N(C)[C@@H](CC(C)(C)C)C(=O)N1C[C@]2(C[C@H]1C#N)C(=O)Nc1ccccc12` [Example 288], the IC50 was under 100 nM.
Consider `C[C@H](NC(=O)OCc1ccccc1)C(=O)N(C)[C@@H](Cc1ccccc1)C(=O)N1C[C@]2(C[C@H]1C#N)C(=O)Nc1ccccc12` [Example 274], for which the IC50 is under 100 nM.
On the same count and under the same terms, the result for `CCN(C(=O)[C@H](C)NC(=O)OC(C)C)[C@@H](CC(C)C)C(=O)N1C[C@]2(C[C@H]1C#N)C(=O)Nc1ccccc12` [Example 371] reads under 100 nM; that for `CN(C(=O)[C@@H]1C[C@H](c2ccccc2)CN1)[C@@H](CC(C)(C)C)C(=O)N1C[C@]2(C[C@H]1C#N)C(=O)Nc1ccccc12` [Example 231], under 100 nM.
On the same count and under the same terms, the value for `CC(C)C[C@H](C(=O)N1C[C@]2(C[C@H]1C#N)C(=O)Nc1ccccc12)n1cccc(NS(=O)(=O)C2CC2)c1=O` [Example 359] was 100 to 1000 nM.
On the same count and under the same terms, the value for `C[C@H](NC(=O)C(F)(F)C(F)(F)F)C(=O)N(C)[C@@H](CC(C)(C)C)C(=O)N1C[C@]2(C[C@H]1C#N)C(=O)Nc1ccc(Br)cc12` [Example 171] was under 100 nM; that for `CC(C)(C)C[C@H](NC(=O)[C@H](CC1CC1)NC(=O)C1CCC1)C(=O)N1C[C@]2(C[C@H]1C#N)C(=O)Nc1ccccc12` [Example 320] was under 100 nM.
Regarding `CC(C)C[C@@H](C(=O)N1C[C@]2(C[C@H]1C#N)C(=O)Nc1ccccc12)N(C)C(=O)[C@@H]1C[C@H]2C[C@H]2N1C1CC1` [Example 258], the IC50 was under 100 nM.
For the compound `C[C@H](NC(=O)c1ccc(F)cc1)C(=O)N[C@@H](CC(C)(C)C)C(=O)N1C[C@]2(C[C@H]1C#N)C(=O)Nc1ccccc12` [Example 218], the IC50 is under 100 nM.
With `[2H]C([2H])([2H])N(C(=O)[C@H](C)NC(=O)C(F)(F)C(F)(F)F)[C@@H](CCCC)C(=O)N1C[C@]2(C[C@H]1C#N)C(=O)Nc1ccccc12` [Example 192], the IC50 was under 100 nM.
`C[C@H](Nc1ccc(F)cc1)C(=O)N[C@@H](CC(C)(C)C)C(=O)N1C[C@]2(C[C@H]1C#N)C(=O)Nc1ccccc12` [Example 336]: the IC50 lay within 100 to 1000 nM.
The same measure, in the same setting: the value for `CC(C)C[C@@H](C(=O)N1C[C@]2(C[C@H]1C#N)C(=O)Nc1ccccc12)N(C)C(=O)[C@@H]1C[C@H]2C[C@H]2N1C` [Example 260] was under 100 nM.
The same measure, in the same setting: the result for `CC(C)C[C@@H](C(=O)N1C[C@]2(C[C@H]1C#N)C(=O)Nc1ccccc12)n1cccc(NS(=O)(=O)C2CC2)c1=O` [Example 353] reads under 100 nM; that for `CC(C)(C)C[C@H](NC(=O)[C@H](CC1CC1)NC(=O)c1cc(F)c(F)c(F)c1)C(=O)N1C[C@]2(C[C@H]1C#N)C(=O)Nc1ccccc12` [Example 312], under 100 nM.
The same measure, in the same setting: the value for `CC(C)C[C@@H](C(=O)N1C[C@]2(C[C@H]1C#N)C(=O)Nc1ccccc12)N(C)C(=O)[C@H](C)NC(=O)C(F)(F)CC(C)C` [Example 142] was under 100 nM.
For the compound `CC(C)C[C@@H](C(=O)N1C[C@]2(C[C@H]1C#N)C(=O)Nc1ccccc12)N(C)C(=O)[C@H](C)NC(=O)c1ccc2c(c1)OCC2` [Example 190], the IC50 was under 100 nM.
Still for that read-out and setting: the value for `CC(C)(C)C[C@H](NC(=O)[C@@H](Nc1cnc2ccccc2c1)C1CC1)C(=O)N1C[C@]2(C[C@H]1C#N)C(=O)Nc1ccccc12` [Example 343] was under 100 nM.
As to `CC(C)C[C@@H](C(=O)N1C[C@]2(C[C@H]1C#N)C(=O)Nc1ccc(Cl)cc12)N(C)C(=O)[C@H](C)NC(=O)C(F)(F)C(F)(F)F` [Example 168], the IC50 is under 100 nM.
Still for that read-out and setting: the result for `CCN(C(=O)C(C)NC(=O)C12CC(C)(C1)C2)C(CC(C)C)C(=O)N1CC2(CC1C#N)C(=O)Nc1ccccc12` (centres unmarked) [Example 367] reads under 100 nM; that for `[2H]C([2H])([2H])N(C(=O)[C@H](C)NC(=O)C(F)(F)F)[C@@H](CCCC)C(=O)N1C[C@]2(C[C@H]1C#N)C(=O)Nc1ccccc12` [Example 191], under 100 nM; that for `CC[C@H](NC(=O)c1ccc(F)cc1C(F)(F)F)C(=O)N(C)[C@@H](CC(C)C)C(=O)N1C[C@]2(C[C@H]1C#N)C(=O)Nc1ccccc12` [Example 194], under 100 nM.
The same measure, in the same setting: the value for `CC(C)C[C@@H](C(=O)N1C[C@]2(C[C@H]1C#N)C(=O)Nc1ccccc12)N(C)C(=O)[C@H](C)NC(=O)C(C)(C)C(F)(F)F` [Example 283] was under 100 nM; that for `CC(C)C[C@@H](C(=O)N1C[C@]2(C[C@H]1C#N)C(=O)Nc1ccccc12)N(C)C(=O)[C@H](C)NC(=O)C1CC1(C)C` (some centres unmarked) [Example 265] was under 100 nM; that for `CC(C)N1C[C@@H]2CCC[C@@H]2[C@H]1C(=O)N(C)[C@@H](CC(C)(C)C)C(=O)N1C[C@]2(C[C@H]1C#N)C(=O)Nc1ccccc12` [Example 181] was under 100 nM.
Regarding `CC(C)C[C@@H](C(=O)N1C[C@]2(C[C@H]1C#N)C(=O)Nc1ccccc12)N(C)C(=O)[C@H](C)NC(=O)C(C)C` [Example 217], the IC50 is under 100 nM.
With `C[C@H](NC(=O)c1cccc(-c2ccccc2)c1)C(=O)N(C)[C@@H](CC(C)(C)C)C(=O)N1C[C@]2(C[C@H]1C#N)C(=O)Nc1ccccc12` [Example 290], the IC50 was under 100 nM.
In the case of `CC[C@H](NC(=O)C(=O)Nc1c(F)cccc1C(F)(F)F)C(=O)N(C)[C@@H](CC(C)C)C(=O)N1C[C@]2(C[C@H]1C#N)C(=O)Nc1ccccc12` [Example 193], the IC50 is under 100 nM.
Same read-out and setting: the result for `C[C@H](NC(=O)C(F)(F)C(F)(F)F)C(=O)N(C)[C@@H](CC(C)(C)C)C(=O)N1C[C@]2(C[C@H]1C#N)C(=O)N(Cl)c1ccc(Cl)cc12` [Example 172] reads under 100 nM.
Same read-out and setting: the result for `CC(C)C[C@@H](C(=O)N1C[C@]2(C[C@H]1C#N)C(=O)Nc1ccccc12)N(C)C(=O)[C@H](C)NC(=O)c1cccc(-c2ccc(C(F)(F)F)cc2)c1` [Example 147] reads under 100 nM.
Still for that read-out and setting: the result for `CCN(C(=O)[C@H](C)NC(=O)c1ccc(OC(F)(F)F)cc1)[C@@H](CC(C)C)C(=O)N1C[C@]2(C[C@H]1C#N)C(=O)Nc1ccccc12` [Example 361] reads under 100 nM; that for `COc1ccc(C(=O)N[C@@H](C)C(=O)N(C)[C@@H](CC(C)(C)C)C(=O)N2C[C@]3(C[C@H]2C#N)C(=O)Nc2ccccc23)c2ccccc12` [Example 293], under 100 nM; that for `C[C@H](NC(=O)C(F)(F)F)C(=O)N(C)[C@@H](CC1CC1)C(=O)N1C[C@]2(C[C@H]1C#N)C(=O)Nc1ccccc12` [Example 203], under 100 nM.
As to `C[C@H](NC(=O)C(F)(F)CCc1ccccc1)C(=O)N(C)[C@@H](CC(C)(C)C)C(=O)N1C[C@]2(C[C@H]1C#N)C(=O)Nc1ccccc12` [Example 244], the IC50 is under 100 nM.
Same read-out and setting: the value for `CC(C)C[C@@H](C(=O)N1C[C@]2(C[C@H]1C#N)C(=O)Nc1ccccc12)N(C)C(=O)[C@@H]1CC2(CCCC2)CN1C(C)C` [Example 255] was under 100 nM; that for `CC(C)C(=O)N[C@@H](C)C(=O)N[C@@H](CC(C)(C)C)C(=O)N1C[C@]2(C[C@H]1C#N)C(=O)Nc1ccccc12` [Example 223] was under 100 nM.
Still for that read-out and setting: the value for `C[C@H](NC(=O)c1ccc(-c2ccccc2)cc1)C(=O)N(C)[C@@H](CC(C)(C)C)C(=O)N1C[C@]2(C[C@H]1C#N)C(=O)Nc1ccccc12` [Example 289] was under 100 nM; that for `CC(C)C[C@@H](C(=O)N1C[C@]2(C[C@H]1C#N)C(=O)Nc1ccccc12)N(C)C(=O)[C@H](C)NC(=O)C1(F)CCCC1` [Example 143] was under 100 nM; that for `C[C@H](NC(=O)c1cc(F)c(F)c(F)c1)C(=O)N(C)[C@@H](CC(C)(C)C)C(=O)N1C[C@]2(C[C@H]1C#N)C(=O)Nc1ccccc12` [Example 214] was under 100 nM.
Regarding `C[C@H](NC(=O)C(F)(F)C(F)(F)F)C(=O)N(C)[C@@H](CC(C)(C)C)C(=O)N1C[C@]2(C[C@H]1C#N)C(=O)N(C)c1ccccc12` [Example 348], the IC50 was under 100 nM.
Turning to `CC(C)(C)C[C@H](NC(=O)[C@H](CC1CC1)NC(=O)c1c[nH]cn1)C(=O)N1C[C@]2(C[C@H]1C#N)C(=O)Nc1ccccc12` [Example 325], the IC50 was 100 to 1000 nM.
As to `C[C@H](NC(=O)c1ccc(Cl)c(Cl)c1)C(=O)N(C)[C@@H](CC(C)(C)C)C(=O)N1C[C@]2(C[C@H]1C#N)C(=O)Nc1ccccc12` [Example 212], the IC50 was under 100 nM.
The same measure, in the same setting: the value for `C[C@H](NC(=O)C(F)(F)C(F)(F)F)C(=O)N(C)[C@@H](CC1CC1)C(=O)N1C[C@]2(C[C@H]1C#N)C(=O)Nc1ccccc12` [Example 205] was under 100 nM.
